This passage reports inhibition and IC50 results from patent publication US11578074B2, “Nitrogenous heterocyclic compound, preparation method, intermediate, composition, and application” (SHANGHAI PHARMACEUTICALS HOLDING CO., LTD., priority 2017, dated 2023).

In one series the target is T1, CYP2C9 (Homo sapiens, UniProt P11712).
T1 construct: A system of 100 μL human liver microsomes; from tissue; host or cells: human liver microsomes
In words: Direct inhibition (DI) of CYP2C9 in human liver microsomes. It counts as in vitro ADME. The settings on record: probe Diclofenac, human liver microsomes 0.2 mg/mL, 10 μM compound, read-out: Direct inhibition (DI) 2C9 (Diclofenac). As for the experimental part: (§1) Study on Direct Inhibition (DI) of CYP3A4, CYP2D6, CYP2C9, CYP2C19, CYP1A2
(§2) A system of 100 μL human liver microsomes (final concentration: 0.2 mg/mL) was used for direct inhibition under warm incubation. The system contained NADPH (final concentration: 1 mM), 10 μM compound, a positive inhibitor cocktail (Ketoconazole 10 μM, Quinidine: 10 μM, Sulfaphenazole: 100 μM, Naphthoflavone: 10 μM, Tranylcypromene 1000 μM), a negative control 10 μM DMSO and mixed probe substrates (Midazolam 10 μM, Testosterone 100 μM, Dextromethophan 10 μM, Diclofenac 20 μM, Phenetin 100 μM, Mephenytoin 100 μM). The reaction was terminated after incubation for 20 minutes. The relative activity of the enzymes was calculated by measuring the relative production of metabolites.

Another series concerns the target T2, CYP2D6 (Homo sapiens, UniProt P10635).
T2 construct: A system of 100 μL human liver microsomes; from tissue; host or cells: human liver microsomes
The experiment in a line: Direct inhibition (DI) of CYP2D6 in human liver microsomes. In kind it is in vitro ADME. The conditions noted are these: probe Dextromethorphan, human liver microsomes 0.2 mg/mL, 10 μM compound, read-out: Direct inhibition (DI) 2D6 (Dextromethorphan). As for the experimental part:
as §1, §2

Series [1] concerns BT-474 (human breast cancer cell). The experiment in a line: In vitro proliferation inhibition assay of cell lines (CellTiter-Glo), BT-474. It counts as cell-based. The settings on record: BT-474 cells, 72 hours. In short, it runs like this: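 Cells were exposed to nine compound concentrations in duplicate for 72 h at 37 °C and 5% CO2. Viability was read with CellTiter-Glo reagent after equilibration at room temperature.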

The next series deals with T3, ErbB2 kinase (Homo sapiens, UniProt P04626).
T3 construct: The final concentration of ErbB2 kinase was 0.06 ng/μL
T3 sequence (P04626 23-1255): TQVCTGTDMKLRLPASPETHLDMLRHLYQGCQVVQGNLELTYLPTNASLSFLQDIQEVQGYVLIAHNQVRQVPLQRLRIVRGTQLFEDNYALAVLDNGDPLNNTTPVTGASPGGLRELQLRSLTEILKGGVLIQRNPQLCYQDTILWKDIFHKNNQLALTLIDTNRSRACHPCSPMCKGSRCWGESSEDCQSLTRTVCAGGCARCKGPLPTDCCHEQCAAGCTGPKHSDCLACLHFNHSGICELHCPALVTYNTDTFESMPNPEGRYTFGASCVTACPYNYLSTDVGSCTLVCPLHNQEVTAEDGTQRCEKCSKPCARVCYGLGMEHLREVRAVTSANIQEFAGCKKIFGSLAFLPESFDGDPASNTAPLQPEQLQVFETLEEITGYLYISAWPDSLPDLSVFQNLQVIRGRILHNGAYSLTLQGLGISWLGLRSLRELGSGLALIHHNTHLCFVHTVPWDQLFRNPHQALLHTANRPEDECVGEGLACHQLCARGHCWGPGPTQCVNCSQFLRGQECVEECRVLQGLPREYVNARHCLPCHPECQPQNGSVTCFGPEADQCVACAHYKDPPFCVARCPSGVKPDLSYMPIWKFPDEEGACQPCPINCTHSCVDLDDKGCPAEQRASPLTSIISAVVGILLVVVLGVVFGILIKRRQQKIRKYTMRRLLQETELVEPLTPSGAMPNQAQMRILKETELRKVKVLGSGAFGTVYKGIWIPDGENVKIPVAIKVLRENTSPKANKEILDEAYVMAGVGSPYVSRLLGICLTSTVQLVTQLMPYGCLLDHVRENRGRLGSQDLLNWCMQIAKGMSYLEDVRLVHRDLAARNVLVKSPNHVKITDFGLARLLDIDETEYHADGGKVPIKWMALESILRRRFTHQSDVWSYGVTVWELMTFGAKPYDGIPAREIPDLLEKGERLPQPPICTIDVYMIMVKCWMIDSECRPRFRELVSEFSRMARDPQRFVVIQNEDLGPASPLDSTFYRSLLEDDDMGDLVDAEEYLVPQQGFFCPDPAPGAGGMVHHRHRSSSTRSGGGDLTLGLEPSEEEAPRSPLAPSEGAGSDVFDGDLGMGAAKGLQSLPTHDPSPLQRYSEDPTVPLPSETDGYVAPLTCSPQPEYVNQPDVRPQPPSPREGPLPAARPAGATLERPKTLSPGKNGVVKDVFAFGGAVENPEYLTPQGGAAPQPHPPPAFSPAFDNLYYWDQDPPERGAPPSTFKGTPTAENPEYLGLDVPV
In words: EGFR/ErbB2 enzymatic experiment (HTRF kinEASE-TK), ErbB2. It counts as biochemical. The settings on record: ErbB2 kinase 0.06 ng/μL, ATP 4 μM; read-out: Kinase IC50 (nM) in vitro ErbB2.

In the next series the target is T4, CYP3A4 (Homo sapiens, UniProt P08684).
T4 construct: A system of 100 μL human liver microsomes; from tissue; host or cells: human liver microsomes
T4 sequence (P08684 whole entry): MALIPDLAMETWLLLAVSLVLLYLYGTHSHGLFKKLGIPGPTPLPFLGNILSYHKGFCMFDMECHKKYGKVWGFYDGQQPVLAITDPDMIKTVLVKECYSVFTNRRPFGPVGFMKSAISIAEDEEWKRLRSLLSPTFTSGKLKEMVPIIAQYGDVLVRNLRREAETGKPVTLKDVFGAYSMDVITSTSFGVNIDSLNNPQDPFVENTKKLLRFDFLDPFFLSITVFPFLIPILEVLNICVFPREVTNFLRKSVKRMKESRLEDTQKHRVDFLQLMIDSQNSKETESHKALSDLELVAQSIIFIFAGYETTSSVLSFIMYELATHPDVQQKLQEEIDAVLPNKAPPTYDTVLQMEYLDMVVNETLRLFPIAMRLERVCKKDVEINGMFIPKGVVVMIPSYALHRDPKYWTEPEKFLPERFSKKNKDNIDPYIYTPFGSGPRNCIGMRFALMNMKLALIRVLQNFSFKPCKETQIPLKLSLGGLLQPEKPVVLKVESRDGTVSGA
The experiment in a line: Direct inhibition (DI) of CYP3A4 in human liver microsomes. In kind it is in vitro ADME. The settings on record: human liver microsomes 0.2 mg/mL, 10 μM compound. As for the experimental part: as §1, §2

In a further series the target is T5, CYP2C19 (Homo sapiens, UniProt P33261).
T5 construct: A system of 100 μL human liver microsomes; from tissue; host or cells: human liver microsomes
T5 sequence (P33261 whole entry): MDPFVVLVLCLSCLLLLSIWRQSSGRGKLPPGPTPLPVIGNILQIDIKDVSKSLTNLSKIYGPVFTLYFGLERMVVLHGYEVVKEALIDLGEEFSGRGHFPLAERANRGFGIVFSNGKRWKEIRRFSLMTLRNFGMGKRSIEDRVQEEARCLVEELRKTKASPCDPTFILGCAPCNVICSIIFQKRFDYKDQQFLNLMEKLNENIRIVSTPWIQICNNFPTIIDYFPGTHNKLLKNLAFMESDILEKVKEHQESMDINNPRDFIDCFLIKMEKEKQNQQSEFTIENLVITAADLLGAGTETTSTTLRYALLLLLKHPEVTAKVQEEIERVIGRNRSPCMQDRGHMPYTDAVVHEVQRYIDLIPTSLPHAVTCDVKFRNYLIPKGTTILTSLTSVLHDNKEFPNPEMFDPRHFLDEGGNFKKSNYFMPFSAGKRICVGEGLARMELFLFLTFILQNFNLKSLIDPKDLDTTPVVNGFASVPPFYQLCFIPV
The experiment in a line: Direct inhibition (DI) of CYP2C19 in human liver microsomes. The settings on record: probe Mephenytoin, human liver microsomes 0.2 mg/mL, 10 μM compound, read-out: Direct inhibition (DI) 2C19 (Mephenytoin). It counts as in vitro ADME. The procedure:
as §1, §2

The subject of series [2] is N87 (human gastric cancer cell NCI-N87). The experiment in a line: In vitro proliferation inhibition assay of cell lines (CellTiter-Glo), N87. It counts as cell-based. The conditions noted are these: N87 cells, 72 hours. In short, it runs like this: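 Cells seeded overnight (BT-474 8.8×10^4 cells/mL, N87 6.6×10^4 cells/mL), then exposed to 9 compound concentrations in duplicate for 72 hours at 37° C, 5% CO2. Viability read by CellTiter-Glo luminescence.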

For another series, the target named is T6, CYP1A2 (Homo sapiens, UniProt P05177).
T6 construct: A system of 100 μL human liver microsomes; from tissue; host or cells: human liver microsomes
T6 sequence (P05177 1-516): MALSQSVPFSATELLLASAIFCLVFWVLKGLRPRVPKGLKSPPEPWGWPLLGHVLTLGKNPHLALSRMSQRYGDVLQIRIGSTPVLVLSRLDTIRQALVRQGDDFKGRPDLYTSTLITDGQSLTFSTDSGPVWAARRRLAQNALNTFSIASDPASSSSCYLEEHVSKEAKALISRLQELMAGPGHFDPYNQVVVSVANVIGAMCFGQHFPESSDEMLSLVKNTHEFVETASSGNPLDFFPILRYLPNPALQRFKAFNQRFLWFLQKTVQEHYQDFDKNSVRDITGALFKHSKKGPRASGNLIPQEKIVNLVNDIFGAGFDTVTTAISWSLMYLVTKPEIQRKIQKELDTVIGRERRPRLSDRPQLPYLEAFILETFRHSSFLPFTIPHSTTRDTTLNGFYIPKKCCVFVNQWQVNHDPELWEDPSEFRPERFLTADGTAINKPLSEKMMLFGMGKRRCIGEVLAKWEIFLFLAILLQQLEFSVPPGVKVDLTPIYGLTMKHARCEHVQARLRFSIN
In words: Direct inhibition (DI) of CYP1A2 in human liver microsomes. In kind it is in vitro ADME. The settings on record: probe Phenacetin, human liver microsomes 0.2 mg/mL, 10 μM compound, read-out: Direct inhibition (DI) 1A2 (Phenacetin). The procedure: as §1, §2

The target in the next series is EGFR kinase (Homo sapiens, UniProt P00533). In words: EGFR/ErbB2 enzymatic experiment (HTRF kinEASE-TK), EGFR. The conditions noted are these: EGFR kinase 0.06 units/μL, ATP 1.65 μM; read-out: Kinase IC50 (nM) in vitro EGFR. It counts as biochemical.
Sequence of EGFR kinase (P00533 25-1210): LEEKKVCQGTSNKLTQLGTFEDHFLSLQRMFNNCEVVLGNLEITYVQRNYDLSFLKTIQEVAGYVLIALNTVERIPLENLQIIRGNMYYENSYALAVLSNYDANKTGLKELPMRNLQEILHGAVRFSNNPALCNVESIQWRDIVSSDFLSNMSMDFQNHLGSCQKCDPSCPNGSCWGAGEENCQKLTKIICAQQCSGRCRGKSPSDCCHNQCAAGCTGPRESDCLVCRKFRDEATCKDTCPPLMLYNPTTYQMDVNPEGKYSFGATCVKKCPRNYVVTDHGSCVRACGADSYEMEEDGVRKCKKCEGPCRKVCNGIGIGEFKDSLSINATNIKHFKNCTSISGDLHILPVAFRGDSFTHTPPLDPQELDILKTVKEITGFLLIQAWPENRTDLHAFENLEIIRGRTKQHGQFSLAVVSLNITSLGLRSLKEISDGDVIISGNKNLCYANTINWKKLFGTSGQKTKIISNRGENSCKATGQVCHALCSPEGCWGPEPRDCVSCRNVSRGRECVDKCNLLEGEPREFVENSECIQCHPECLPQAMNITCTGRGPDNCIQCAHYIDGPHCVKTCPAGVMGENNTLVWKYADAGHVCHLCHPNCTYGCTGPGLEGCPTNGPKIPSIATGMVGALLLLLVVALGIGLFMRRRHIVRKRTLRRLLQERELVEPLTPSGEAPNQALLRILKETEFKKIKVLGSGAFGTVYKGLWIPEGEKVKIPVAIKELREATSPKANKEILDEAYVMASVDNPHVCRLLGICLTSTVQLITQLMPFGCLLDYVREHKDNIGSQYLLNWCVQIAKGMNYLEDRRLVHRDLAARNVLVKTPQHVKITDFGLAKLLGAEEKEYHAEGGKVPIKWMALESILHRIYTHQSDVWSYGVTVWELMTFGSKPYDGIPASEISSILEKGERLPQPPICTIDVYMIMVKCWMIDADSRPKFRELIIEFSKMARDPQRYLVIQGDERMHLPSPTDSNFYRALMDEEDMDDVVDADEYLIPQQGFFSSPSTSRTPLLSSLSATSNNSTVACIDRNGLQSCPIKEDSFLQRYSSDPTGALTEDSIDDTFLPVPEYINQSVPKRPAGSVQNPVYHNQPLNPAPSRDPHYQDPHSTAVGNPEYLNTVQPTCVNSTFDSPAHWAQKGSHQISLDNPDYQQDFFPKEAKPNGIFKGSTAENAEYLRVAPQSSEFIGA
Where [3] appears, read: probe Midazolam, read-out: Direct inhibition (DI) 3A4 (Midazolam).
[4] abbreviates: probe Testosterone, read-out: Direct inhibition (DI) 3A4 (testosterone).

Molecules are shown by their SMILES. Where two headings read alike, the source gives them in different places.

T2 sequence (P10635 whole entry): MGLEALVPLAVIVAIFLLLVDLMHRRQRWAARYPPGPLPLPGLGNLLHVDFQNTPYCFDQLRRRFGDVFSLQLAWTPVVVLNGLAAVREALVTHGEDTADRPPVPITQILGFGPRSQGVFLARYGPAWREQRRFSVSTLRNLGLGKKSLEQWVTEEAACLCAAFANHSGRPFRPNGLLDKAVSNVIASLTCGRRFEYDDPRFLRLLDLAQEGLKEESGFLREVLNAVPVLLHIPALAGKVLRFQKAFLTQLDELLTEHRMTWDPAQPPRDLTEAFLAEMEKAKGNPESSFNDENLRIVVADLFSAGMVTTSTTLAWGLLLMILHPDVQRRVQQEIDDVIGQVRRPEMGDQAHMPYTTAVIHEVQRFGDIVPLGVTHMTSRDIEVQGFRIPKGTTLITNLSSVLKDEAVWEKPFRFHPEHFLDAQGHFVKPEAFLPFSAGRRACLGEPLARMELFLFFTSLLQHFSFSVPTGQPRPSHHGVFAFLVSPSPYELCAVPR
T1 sequence (P11712 whole entry): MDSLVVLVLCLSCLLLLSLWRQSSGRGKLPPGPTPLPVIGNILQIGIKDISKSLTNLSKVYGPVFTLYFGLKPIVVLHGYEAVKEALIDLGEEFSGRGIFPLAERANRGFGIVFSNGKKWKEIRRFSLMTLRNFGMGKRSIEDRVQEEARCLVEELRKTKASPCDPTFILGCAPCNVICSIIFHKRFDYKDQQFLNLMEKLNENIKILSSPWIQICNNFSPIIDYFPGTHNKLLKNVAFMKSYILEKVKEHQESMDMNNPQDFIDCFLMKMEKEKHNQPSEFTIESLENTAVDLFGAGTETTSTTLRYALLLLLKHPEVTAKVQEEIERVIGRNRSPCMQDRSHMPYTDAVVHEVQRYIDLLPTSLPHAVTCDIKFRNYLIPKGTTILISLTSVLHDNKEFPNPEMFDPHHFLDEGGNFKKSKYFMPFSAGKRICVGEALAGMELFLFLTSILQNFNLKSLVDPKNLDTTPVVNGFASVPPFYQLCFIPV

On to `Cc1cc(Nc2ncnc3ccc(NC(=O)/C=C/[C@H]4CCCN4C)cc23)ccc1Oc1ccn2ccnc2c1` [Final product of Embodiment 11, (R,E)-N-(4-((4-(imidazo[1,2-a]pyridin-7-yloxy)-3-methylphenyl)amino)quinazolin-6-yl)-3-(1-methylpyrrolidin-2-yl)acrylamide], for which the inhibition at 20 min, 10 µM was determined as 9% on CYP2C9; 87% at CYP2D6; 5% on CYP3A4 (setting [3]); 16% on CYP3A4 (setting [4]); 26% at CYP2C19; 9% on CYP1A2. Moreover, the concentration for half-maximal inhibition (IC50) in [1] is 3.27 nM; at ErbB2 kinase, 0.73 nM; in [2], 3.18 nM; at EGFR kinase, 1.02 nM.
For `Cc1cc(Nc2ncnc3ccc(NC(=O)/C=C/[C@H]4CCCN4C)cc23)ccc1Oc1ccn2ncnc2n1` [Final product of Embodiment 12, (R,E)-N-(4-((4-([1,2,4]triazolo[1,5-a]pyrimidin-5-yloxy)-3-methylphenyl)amino)quinazolin-6-yl)-3-(1-methylpyrrolidin-2-yl)-acrylamide], the inhibition at 20 min, 10 µM at CYP2C9 is 5%; on CYP2D6 it was 77%; on CYP3A4 (setting [3]) it was less than 0%; at CYP3A4 (setting [4]), 4%; at CYP2C19, 13%; on CYP1A2, 2%. The IC50 in series [1] was determined as 4.01 nM; on ErbB2 kinase, 0.99 nM; in series [2], 4.19 nM; on EGFR kinase, 0.42 nM.
In the case of `CCOc1cc2ncnc(Nc3ccc(Oc4cc5nncn5cn4)c(C)c3)c2cc1NC(=O)/C=C/[C@H]1CCCN1` [Final product of Embodiment 17, (R,E)-N-(4-((4-([1,2,4]triazolo[4,3-c]pyrimidin-7-yloxy)-3-methylphenyl)amino)-7-ethoxyquinazolin-6-yl)-3-(pyrrolidin-2-yl)acrylamide], the inhibition at 20 min, 10 µM was found to be 8% on CYP2C9; 4% at CYP2D6; 17% at CYP3A4 (setting [3]); 34% on CYP3A4 (setting [4]); 9% at CYP2C19; 3% on CYP1A2. For the same compound, the concentration for half-maximal inhibition (IC50) in series [1] came to 5.31 nM; at ErbB2 kinase it was 0.488 nM; in series [2], 4.97 nM; on EGFR kinase, 0.251 nM.
`CCOc1cc2ncnc(Nc3ccc(Oc4cc5nncn5cn4)c(C)c3)c2cc1NC(=O)/C=C/[C@H]1CCCN1C` [Final product of Embodiment 18, (R,E)-N-(4-((4-([1,2,4]triazolo[4,3-c]pyrimidin-7-yloxy)-3-methylphenyl)amino)-7-ethoxyquinazolin-6-yl)-3-(1-methylpyrrolidin-2-yl)acrylamide]: the inhibition at 20 min, 10 µM at CYP2C9 is 4%; on CYP2D6 it was 4%; on CYP3A4 (setting [3]), 12%; at CYP3A4 (setting [4]), 23%; at CYP2C19, 8%; on CYP1A2, 5%. Besides, the IC50 in series [1] worked out at 2.1 nM; at ErbB2 kinase, 0.513 nM; in series [2], 1.58 nM; on EGFR kinase, 0.358 nM.
Turning to `Cc1cc(Nc2ncnc3ccc(NC(=O)/C=C/[C@H]4CCCN4)cc23)ccc1Oc1ccn2ncnc2c1` [Final product of Embodiment 19, (R,E)-N-(4-((4-([1,2,4]triazolo[1,5-a]pyridin-7-yloxy)-3-methylphenyl)amino)quinazolin-6-yl)-3-(pyrrolidin-2-yl)acrylamide], the inhibition at 20 min, 10 µM on CYP2C9 is less than 0%; at CYP2D6, 60%; at CYP3A4 (setting [3]), 16%; on CYP3A4 (setting [4]), 38%; at CYP2C19, less than 0%; on CYP1A2, 7%. For the same compound, the IC50 is 26 nM in [1], 0.716 nM at ErbB2 kinase, 28.4 nM in [2] and 3.97 nM at EGFR kinase.
For `Cc1cc(Nc2ncnc3ccc(NC(=O)/C=C/[C@H]4CCCN4C)cc23)ccc1Oc1ccn2ncnc2c1` [Final product of Embodiment 20, (R,E)-N-(4-((4-([1,2,4]triazolo[1,5-a]pyridin-7-yloxy)-3-methylphenyl)amino)quinazolin-6-yl)-3-(1-methylpyrrolidin-2-yl)acrylamide], the inhibition at 20 min, 10 µM was less than 0% on CYP2C9; 61% on CYP2D6; 0% on CYP3A4 (setting [3]); 14% at CYP3A4 (setting [4]); 7% on CYP2C19; 6% on CYP1A2. Besides, the IC50 turned out to be 3.23 nM in series [1], 0.584 nM on ErbB2 kinase, 2.07 nM in series [2] and 3.93 nM on EGFR kinase.
`Cc1cc(Nc2c(C#N)cnc3ccc(NC(=O)/C=C/[C@H]4CCCN4C)cc23)ccc1Oc1cc2nncn2cn1` [Final product of Embodiment 23, (R,E)-N-(4-((4-([1,2,4]triazolo[4,3-c]pyrimidin-7-yloxy)-3-methylphenyl)amino)-3-cyanoquinolin-6-yl)-3-(1-methylpyrrolidin-2-yl)acrylamide]: the inhibition at 20 min, 10 µM on CYP2C9 was 1%; on CYP2D6, 13%; on CYP3A4 (setting [3]), less than 0%; on CYP3A4 (setting [4]) it was 18%; on CYP2C19 it was 10%; at CYP1A2, less than 0%. Also, the IC50 was determined as 4.2 nM in [1], 7.56 nM at ErbB2 kinase, 5.43 nM in [2] and 1.62 nM on EGFR kinase.
With `Cc1cc(Nc2ncnc3ccc(NC(=O)/C=C/[C@H]4CCCN4C)cc23)ccc1Oc1ccc2nccn2c1` [Final product of Embodiment 24], the inhibition at 20 min, 10 µM on CYP2C9 was found to be 48%; at CYP2D6 it was 90%; on CYP3A4 (setting [3]), 36%; on CYP3A4 (setting [4]) it was 48%; at CYP2C19, 36%; on CYP1A2, 18%. The IC50 in [1] amounted to 4.6 nM; on ErbB2 kinase, 6.46 nM; in series [2] it was 2.93 nM; at EGFR kinase it was 4.08 nM.
Turning to `CN1CCC[C@@H]1/C=C/C(=O)Nc1ccc2ncnc(Nc3ccc(Oc4ccn5ncnc5c4)c(Cl)c3)c2c1` [Final product of Embodiment 26, (R,E)-N-(4-((4-([1,2,4]triazolo[1,5-a]pyridin-7-yloxy)-3-chlorophenyl)amino)quinazolin-6-yl)-3-(1-methylpyrrolidin-2-yl)acrylamide], the inhibition at 20 min, 10 µM at CYP2C9 is 19%; at CYP2D6, 85%; at CYP3A4 (setting [3]), less than 0%; on CYP3A4 (setting [4]) it was 5%; at CYP2C19, 28%; at CYP1A2 it was 2%. Further, the concentration for half-maximal inhibition (IC50) in [1] turned out to be 5.23 nM; on ErbB2 kinase, 0.83 nM; in series [2] it was 3.55 nM; on EGFR kinase, 2.52 nM.
